Measurements as given in publication PMC12102759 (Protein Science : A Publication of the Protein Society, 2025).

Test system: PABPC1 PABC
Format: binding, human
Settings: DMS-BM library, bait PABPC1 PABC, row aa = residue at this position
[1] = prey ATXN2, TLNPNAKEFNPRSF(averaged) over the two overlapping peptides, P = wild type
[2] = prey ATXN2, peptide TLNPNAKEFNPRSFSQ, L = wild type
[3] = prey ATXN2, peptide TLNPNAKEFNPRSFSQ, P = wild type
[4] = prey ATXN2, peptide TLNPNAKEFNPRSFSQ, R = wild type
[5] = prey ATXN2, TLNPNAKEFNPRSF(averaged) over the two overlapping peptides, R = wild type
[6] = prey ATXN2, peptide KSTLNPNAKEFNPRSF, S = wild type
[7] = prey ATXN2, peptide TLNPNAKEFNPRSFSQ, N = wild type
[8] = prey ATXN2, peptide KSTLNPNAKEFNPRSF, N = wild type
[9] = prey ATXN2, peptide TLNPNAKEFNPRSFSQ, F = wild type
[10] = prey ATXN2, TLNPNAKEFNPRSF(averaged) over the two overlapping peptides, N = wild type
[11] = prey ATXN2, peptide KSTLNPNAKEFNPRSF, P = wild type
[12] = prey ATXN2, peptide TLNPNAKEFNPRSFSQ, A = wild type
[13] = prey ATXN2, peptide KSTLNPNAKEFNPRSF, A = wild type
[14] = prey ATXN2, peptide TLNPNAKEFNPRSFSQ, E = wild type
[15] = prey ATXN2, peptide KSTLNPNAKEFNPRSF, K = wild type

TLNPNAKEFNPRSFSQ K7W (TLNPNAWEFNPRSFSQ) was tested, and the “DMS-derived PSSM value, position K7” value (prey ATXN2, peptide TLNPNAKEFNPRSFSQ, K = wild type) was 0.03322.

“TLNPNAKEFNPRSF(averaged) P11S (TLNPNAKEFNSRSF)” was tested, and the “DMS-derived PSSM value (averaged), position P11” value [1] was 0.02695.

With KSTLNPNAKEFNPRSF T3P (KSPLNPNAKEFNPRSF) the “DMS-derived PSSM value, position T3” value (prey ATXN2, peptide KSTLNPNAKEFNPRSF, T = wild type) was 0.005473.

TLNPNAKEFNPRSFSQ L2I (TINPNAKEFNPRSFSQ) was tested, and the “DMS-derived PSSM value, position L2” value [2] was 0.001607.

In the case of TLNPNAKEFNPRSFSQ P4Y (TLNYNAKEFNPRSFSQ), the “DMS-derived PSSM value, position P4” value [3] is reported as 0.

With “TLNPNAKEFNPRSF(averaged) F14A (TLNPNAKEFNPRSA)” the “DMS-derived PSSM value (averaged), position F14” value (prey ATXN2, TLNPNAKEFNPRSF(averaged) over the two overlapping peptides, F = wild type) was 0.04899.

With “TLNPNAKEFNPRSFSQ R12A (TLNPNAKEFNPASFSQ)” the “DMS-derived PSSM value, position R12” value [4] was 0.004965.

“TLNPNAKEFNPRSF(averaged) R12T (TLNPNAKEFNPTSF)” was tested, and the “DMS-derived PSSM value (averaged), position R12” value [5] was 0.1269.

For KSTLNPNAKEFNPRSF S2V (KVTLNPNAKEFNPRSF), the “DMS-derived PSSM value, position S2” value [6] was 0.1043.

For “TLNPNAKEFNPRSFSQ N10S (TLNPNAKEFSPRSFSQ)”, the “DMS-derived PSSM value, position N10” value [7] was 0.03126.

For “TLNPNAKEFNPRSF(averaged) T1P (PLNPNAKEFNPRSF)”, the “DMS-derived PSSM value (averaged), position T1” value (prey ATXN2, TLNPNAKEFNPRSF(averaged) over the two overlapping peptides, T = wild type) was 0.02725.

In the case of “TLNPNAKEFNPRSF(averaged) P4R (TLNRNAKEFNPRSF)”, the “DMS-derived PSSM value (averaged), position P4” value [1] is reported as 0.

In the case of “KSTLNPNAKEFNPRSF N12S (KSTLNPNAKEFSPRSF)”, the “DMS-derived PSSM value, position N12” value [8] is reported as 0.008786.

With “TLNPNAKEFNPRSFSQ F14G (TLNPNAKEFNPRSGSQ)” the “DMS-derived PSSM value, position F14” value [9] was 0.005512.

For KSTLNPNAKEFNPRSF N5D (KSTLDPNAKEFNPRSF), the “DMS-derived PSSM value, position N5” value [8] was 0.

With “TLNPNAKEFNPRSF(averaged) P11F (TLNPNAKEFNFRSF)” the “DMS-derived PSSM value (averaged), position P11” value [1] was 0.06425.

In the case of “TLNPNAKEFNPRSF(averaged) N10T (TLNPNAKEFTPRSF)”, the “DMS-derived PSSM value (averaged), position N10” value [10] is reported as 0.03227.

For “KSTLNPNAKEFNPRSF P13G (KSTLNPNAKEFNGRSF)”, the “DMS-derived PSSM value, position P13” value [11] was 0.05991.

In the case of “KSTLNPNAKEFNPRSF F11P (KSTLNPNAKEPNPRSF)”, the “DMS-derived PSSM value, position F11” value (prey ATXN2, peptide KSTLNPNAKEFNPRSF, F = wild type) is reported as 0.

In the case of KSTLNPNAKEFNPRSF S2D (KDTLNPNAKEFNPRSF), the “DMS-derived PSSM value, position S2” value [6] is reported as 0.01347.

In the case of “KSTLNPNAKEFNPRSF S15A (KSTLNPNAKEFNPRAF)”, the “DMS-derived PSSM value, position S15” value [6] is reported as 0.02636.

With TLNPNAKEFNPRSFSQ A6P (TLNPNPKEFNPRSFSQ) the “DMS-derived PSSM value, position A6” value [12] was 0.

In the case of “TLNPNAKEFNPRSF(averaged) R12W (TLNPNAKEFNPWSF)”, the “DMS-derived PSSM value (averaged), position R12” value [5] is reported as 0.09752.

In the case of “TLNPNAKEFNPRSF(averaged) N10M (TLNPNAKEFMPRSF)”, the “DMS-derived PSSM value (averaged), position N10” value [10] is reported as 0.09167.

For “KSTLNPNAKEFNPRSF R14L (KSTLNPNAKEFNPLSF)”, the “DMS-derived PSSM value, position R14” value (prey ATXN2, peptide KSTLNPNAKEFNPRSF, R = wild type) was 0.02501.

“TLNPNAKEFNPRSFSQ P11W (TLNPNAKEFNWRSFSQ)” was tested, and the “DMS-derived PSSM value, position P11” value [3] was 0.02291.

With “TLNPNAKEFNPRSF(averaged) N3V (TLVPNAKEFNPRSF)” the “DMS-derived PSSM value (averaged), position N3” value [10] was 0.

In the case of TLNPNAKEFNPRSFSQ N3L (TLLPNAKEFNPRSFSQ), the “DMS-derived PSSM value, position N3” value [7] is reported as 0.

With “TLNPNAKEFNPRSFSQ R12V (TLNPNAKEFNPVSFSQ)” the “DMS-derived PSSM value, position R12” value [4] was 0.1384.

With “TLNPNAKEFNPRSF(averaged) N10R (TLNPNAKEFRPRSF)” the “DMS-derived PSSM value (averaged), position N10” value [10] was 0.02307.

KSTLNPNAKEFNPRSF A8Q (KSTLNPNQKEFNPRSF) was tested, and the “DMS-derived PSSM value, position A8” value [13] was 0.

TLNPNAKEFNPRSFSQ A6F (TLNPNFKEFNPRSFSQ) was tested, and the “DMS-derived PSSM value, position A6” value [12] was 0.

With TLNPNAKEFNPRSFSQ P4D (TLNDNAKEFNPRSFSQ) the “DMS-derived PSSM value, position P4” value [3] was 0.

In the case of TLNPNAKEFNPRSFSQ E8M (TLNPNAKMFNPRSFSQ), the “DMS-derived PSSM value, position E8” value [14] is reported as 0.03925.

In the case of “TLNPNAKEFNPRSFSQ R12K (TLNPNAKEFNPKSFSQ)”, the “DMS-derived PSSM value, position R12” value [4] is reported as 0.01776.

With “TLNPNAKEFNPRSF(averaged) R12D (TLNPNAKEFNPDSF)” the “DMS-derived PSSM value (averaged), position R12” value [5] was 0.02577.

For “TLNPNAKEFNPRSF(averaged) L2V (TVNPNAKEFNPRSF)”, the “DMS-derived PSSM value (averaged), position L2” value (prey ATXN2, TLNPNAKEFNPRSF(averaged) over the two overlapping peptides, L = wild type) was 0.005447.

For “KSTLNPNAKEFNPRSF E10P (KSTLNPNAKPFNPRSF)”, the “DMS-derived PSSM value, position E10” value (prey ATXN2, peptide KSTLNPNAKEFNPRSF, E = wild type) was 0.01939.

“TLNPNAKEFNPRSF(averaged) A6Q (TLNPNQKEFNPRSF)” was tested, and the “DMS-derived PSSM value (averaged), position A6” value (prey ATXN2, TLNPNAKEFNPRSF(averaged) over the two overlapping peptides, A = wild type) was 0.

With TLNPNAKEFNPRSFSQ P4G (TLNGNAKEFNPRSFSQ) the “DMS-derived PSSM value, position P4” value [3] was 0.0005247.

“TLNPNAKEFNPRSF(averaged) R12Y (TLNPNAKEFNPYSF)” was tested, and the “DMS-derived PSSM value (averaged), position R12” value [5] was 0.04827.

With TLNPNAKEFNPRSFSQ L2G (TGNPNAKEFNPRSFSQ) the “DMS-derived PSSM value, position L2” value [2] was 0.

TLNPNAKEFNPRSFSQ E8F (TLNPNAKFFNPRSFSQ) was tested, and the “DMS-derived PSSM value, position E8” value [14] was 0.

With “TLNPNAKEFNPRSF(averaged) S13N (TLNPNAKEFNPRNF)” the “DMS-derived PSSM value (averaged), position S13” value (prey ATXN2, TLNPNAKEFNPRSF(averaged) over the two overlapping peptides, S = wild type) was 0.08567.

With KSTLNPNAKEFNPRSF K9D (KSTLNPNADEFNPRSF) the “DMS-derived PSSM value, position K9” value [15] was 0.007291.

In the case of KSTLNPNAKEFNPRSF K9T (KSTLNPNATEFNPRSF), the “DMS-derived PSSM value, position K9” value [15] is reported as 0.02286.

With “KSTLNPNAKEFNPRSF N12I (KSTLNPNAKEFIPRSF)” the “DMS-derived PSSM value, position N12” value [8] was 0.02863.

For KSTLNPNAKEFNPRSF N7W (KSTLNPWAKEFNPRSF), the “DMS-derived PSSM value, position N7” value [8] was 0.

In the case of TLNPNAKEFNPRSFSQ L2A (TANPNAKEFNPRSFSQ), the “DMS-derived PSSM value, position L2” value [2] is reported as 0.

For TLNPNAKEFNPRSFSQ F9V (TLNPNAKEVNPRSFSQ), the “DMS-derived PSSM value, position F9” value [9] was 0.0008789.

For KSTLNPNAKEFNPRSF A8Y (KSTLNPNYKEFNPRSF), the “DMS-derived PSSM value, position A8” value [13] was 0.

For KSTLNPNAKEFNPRSF N5K (KSTLKPNAKEFNPRSF), the “DMS-derived PSSM value, position N5” value [8] was 0.

“TLNPNAKEFNPRSFSQ P11Q (TLNPNAKEFNQRSFSQ)” was tested, and the “DMS-derived PSSM value, position P11” value [3] was 0.01526.

In the case of TLNPNAKEFNPRSFSQ E8A (TLNPNAKAFNPRSFSQ), the “DMS-derived PSSM value, position E8” value [14] is reported as 0.02248.

For “TLNPNAKEFNPRSF(averaged) P11A (TLNPNAKEFNARSF)”, the “DMS-derived PSSM value (averaged), position P11” value [1] was 0.00277.

In the case of “TLNPNAKEFNPRSF(averaged) E8Q (TLNPNAKQFNPRSF)”, the “DMS-derived PSSM value (averaged), position E8” value (prey ATXN2, TLNPNAKEFNPRSF(averaged) over the two overlapping peptides, E = wild type) is reported as 0.02477.

For KSTLNPNAKEFNPRSF L4M (KSTMNPNAKEFNPRSF), the “DMS-derived PSSM value, position L4” value (prey ATXN2, peptide KSTLNPNAKEFNPRSF, L = wild type) was 0.3054.

In the case of “KSTLNPNAKEFNPRSF P13K (KSTLNPNAKEFNKRSF)”, the “DMS-derived PSSM value, position P13” value [11] is reported as 0.

With “TLNPNAKEFNPRSFSQ F14D (TLNPNAKEFNPRSDSQ)” the “DMS-derived PSSM value, position F14” value [9] was 0.0175.

“TLNPNAKEFNPRSFSQ R12P (TLNPNAKEFNPPSFSQ)” was tested, and the “DMS-derived PSSM value, position R12” value [4] was 0.005288.
